Literature values in patent publication US8263630B2, “1,2,3-triazoles as 11-beta hydroxysteroid dehydrogenase type I inhibitors” (Bristol-Myers Squibb Company, priority 2008, dated 2012).

Target: T1, 11beta-HSD1 (Homo sapiens, UniProt P28845)
T1 construct: host or cells: human patients (liver), in vivo
Details: mildly overweight individuals with type 2 diabetes; seven day treatment; versus placebo

T1 sequence (P28845 whole entry): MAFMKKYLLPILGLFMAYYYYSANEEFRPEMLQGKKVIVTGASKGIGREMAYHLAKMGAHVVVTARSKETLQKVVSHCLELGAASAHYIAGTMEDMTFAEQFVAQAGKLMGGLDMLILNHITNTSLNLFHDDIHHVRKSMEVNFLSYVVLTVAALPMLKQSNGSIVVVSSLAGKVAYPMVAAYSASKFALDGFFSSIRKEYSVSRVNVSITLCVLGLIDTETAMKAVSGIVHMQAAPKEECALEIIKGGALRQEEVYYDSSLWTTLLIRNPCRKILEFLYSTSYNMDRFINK

In the case of CC1(C)[C@@H](OC(=O)CCC(=O)O)CC[C@]2(C)[C@H]3C(=O)C=C4[C@@H]5C[C@@](C)(C(=O)O)CC[C@]5(C)CC[C@@]4(C)[C@]3(C)CC[C@@H]12 [carbenoxolone], the hepatic glucose production is listed as “decrease in hepatic glucose production”.
